Reference: patent EP2292587A1, “PHARMACEUTICAL COMPOSITION FOR INHIBITING THE TRANSCRIPTION FACTOR INDUCIBLE BY HYPOXIA, MODULATORS OF PATHOLOGICAL PROCESSES OF ANGIOGENESIS, ONCOGENESIS, INFLAMMATION, APOPTOSIS, AND CELLULAR THERAPY” (Fundacion De La Comunidad Valenciana Centro De …, priority 2008, dated 2009)

What was measured:
HCT116/p53+/+ cells = assay: cell cycle distribution by flow cytometry, HCT116/p53+/+; format: cell-based, human
Excerpt: It was investigated if the activation of DDR by FM19G11 caused a delay in the cycle progress through the G1/S phases in HCT116 tumor cells, as has been described for other DNA-damaging agents (.Lim, DS, Kim, ST, Xu, B, Maser, RS, Lin, J, Petrini, JH et al., (2000) ATM phosphorylates p95/nbs1 in an S-phase checkpoint pathway. Nature 404: 613-7.; Jazayeri, A, Falck, J, Lukas, C, Bartek, J, Smith, GC, Lukas, J et al., (2006) ATM- and cell cycle-dependent regulation of ATR in response to DNA double-strand breaks. Nat Cell Biol 8: 37-45; Liu, JS, Kuo, SR, Beerman, TA and Melendy, T, (2003) Induction of DNA damage responses by adozelesin is S phase-specific and dependent on active replication forks. Mol Cancer Ther 2: 41-7; Ranjan, P and Heintz, NH, (2006) S-phase arrest by reactive nitrogen species is bypassed by okadaic acid, an inhibitor of protein phosphatases PP1/PP2A. Free Radic Biol Med 40: 247-59.). The HCT116 p53+/+ and HCT116 p53-/- cells were exposed for 3 or 6 days to the carrier (DMSO) or to FM19G11 (0.5, 1, 5, 10 µM). […] (Figure 24).
A- The HCT116/p53+/+ cells and B-HCT116/p53-/- cells were exposed to different concentrations of FM19G11 (0.5, 1, 5, 10 µM) or carrier for 3 or 6 days to analyze the distribution of cells in the different cell cycle phases by means of flow cytometry. […]

HCT116/p53-/- = assay: anchorage-independent growth in semisolid agar, HCT116/p53-/-; format: cell-based, human; settings: 0.5 µM, 10 days, versus DMSO
Method: Anchorage-independent cell growth is a study which allows predicting the tumorigenicity of tumor cells in vivo. Anchorage-independent cell growth studies were performed for HT29, HCT116/p53^+/+ and HCT116/p53^-/- cells in semisolid agar which were monitored daily to determine the efficiency of the formation of colonies in the presence of carrier (DMSO) or FM19G11. To that end, the starting material was 75 x 10^3 cells suspended in semisolid agar, which were maintained until 10 days later. […] A reduction of the formation of colonies in the HCT116/p53^-/- cells is not observed. The growth of colonies was quantified in three independent experiments by means of counting colonies in the 4 x magnification optical field of an inverted optical microscope.

HCT116/p53+/+ = assay: clonicity assay, HCT116/p53+/+; format: cell-based; settings: Homo sapiens, HCT-116; stimulated 72 hours, colonies counted after 10 days; read-out: survival IC50
Method: Clonicity assays were conducted to determine the toxicity of FM19G11 in p53-proficient (HT29 and HCT116/p53^+/+) and p53-deficient (HCT116/p53^-/-) tumor cells. Once the HT-29, HCT116/p53^+/+ and HCT116/p53^-/- cells were adhered to the culture plate, they were stimulated with increasing concentrations of FM19G11 (0.5, 1, 5, 10, 20, 50 µM) for 72 hours. After 10 days of stimulation, the number of colonies formed in the plates of treated and untreated cells was determined.
Results of the clonicity assays of HT29 human colon cancer cells, HCT116 cells treated with FM19G11 were monitored up to 10 after the treatment (Figure 28). The IC50 was determined by extrapolating the percentage with the concentration. FM19G11 was used at concentrations: 0.5, 1, 5, 10, 50, 100, 200 µM

[1] = test system: AKT/mTOR/p70S6/Cyclin D1 signaling pathway; assay: activation kinetics of mTOR signaling pathway, HCT116/p53+/+; format: cell-based, human; settings: 0.5 µM
Method: Due to the crucial role of p53 as a tumor-suppressing agent, it was analyzed in HCT116 cells how FM19G11 affected the activation kinetics of proteins involved in favoring cell cycle progress, specifically the mTOR cell signaling pathway. An increase of cell progress can be due to replicative stress which generates DNA damage (Bartkova, J, Horejsi, Z, Koed, K, Kramer, A, Tort, F, Zieger, K et al., (2005) DNA damage response as a candidate anti-cancer barrier in early human tumorigenesis. Nature 434: 864-70; Bartkova, J, Rezaei, N, Liontos, M, Karakaidos, P, Kletsas, D, Issaeva, N et al., (2006) Oncogene-induced senescence is part of the tumorigenesis barrier imposed by DNA damage checkpoints. Nature 444: 633-7; Di Micco, R, Fumagalli, M, Cicalese, A, Piccinin, S, Gasparini, P, Luise, C et al., (2006) Oncogene-induced senescence is a DNA damage response triggered by DNA hyper-replication. Nature 444: 638-42), it was explored if the DDR triggered by FM19G11 was related to an increase of the cell cycle progress signal modulated by the mTOR signaling pathway. […]

Cc1ccc(C(=O)COC(=O)c2cccc(NC(=O)c3ccc([N+](=O)[O-])cc3[N+](=O)[O-])c2)cc1 [FM19G11, 2-oxo-2-(p-tolyl)ethyl 3-((2,4-dinitro)benzamido)benzoate]
G1/S phase cycle arrest (HCT116/p53+/+ cells; 5 or 10 µM, after 72 hours, more evident after 6 days): caused G1/S phase cycle arrest | S phase cycle arrest on simultaneous incubation with rapamycin (HCT116/p53+/+ cells; FM19G11 (10 µM) + rapamycin (100 pmol)): prevented | reduction of the formation of colonies in semisolid agar (HCT116/p53-/-): not observed | IC50 (HCT116/p53+/+): 3.5 µM | activation of the AKT/mTOR/p70S6/Cyclin D1 signaling pathway (fold change) [1]: ≥ 2
